In patent US12440542B1, “Kits for preparing and delivering purified corticotropin” (ANI Pharmaceuticals, Inc., priority 2022, dated 2025):

tested on: THP-1 Blue, Raw Blue, HEK-blue hTLR3, HEK-Blue hTLR4, HEK-Blue hNOD2; test: Activation of innate immune response in reporter cell lines covering TLR and NOD2 expression; format: cell-based; conditions: 5 cell lines; 3 PPQ lots; highest drug substance concentration tested 10 μg/mL
Procedure: Method development, qualification, and testing for activation of innate immune response was performed. The innate immune assays performed compared 3 PPQ lots. The work was conducted using 5 cell lines to cover TLR and NOD2 expression (THP-1 Blue, Raw Blue, HEK-blue hTLR3, HEK-Blue hTLR4, HEK-Blue hNOD2). […] The highest drug substance concentration tested was 10 μg/mL. A dose of the sterile preparation of purified corticotropin at 80 U is, equivalent to approximately 1 mg of drug substance per total body weight of subject.

Compound | dose response in innate immune assays
CCCc1nc2c(N)nc3ccccc3c2s1 [CL075] | robust dose responses
CC(=O)N[C@@H]1[C@@H](O[C@H](C)C(=O)N[C@@H](C)C(=O)N[C@H](CCC(=O)O)C(N)=O)[C@H](O)[C@@H](CO)O[C@H]1O [MDP] | robust dose responses
FSL-1 | robust dose responses
